Measured values: patent US20180021307A1, “Combination Treatment” (UCB Biopharma SPRL, priority 2015, published 2018)

Columns and labels:
6 Hz-induced seizures = test: 6 Hz seizure test in mice with isobolographic analysis; type: in vivo; details: for ED50add ± SEM: drug administered alone, i.p., 30 min before the test, NMRI mice; for anticonvulsant effects against 6 Hz seizure: mice
Procedure: According and Deckers et al. (2000) an isobolographic method used and evaluate interactions among AEDs is considered and be the optimal method for detecting synergy, additivity or antagonism among AEDs in animal models of epilepsy, such as the 6 Hz seizure model in mice. For isobolographic analysis, the experimental (EDmix) and theoretical additive (EDadd) ED50 values are determined from the dose-response curves of combined drugs. ED50 is defined as a dose of a drug protecting 50% of the animals against 6 Hz-induced seizures. ED50mix is an experimentally determined total dose of the mixture of two component drugs, which were administered in the fixed-ratio combination sufficient for a 50% protective effect. Conversely, ED50add represents a total additive dose of two drugs (calculated from the line of additivity), theoretically providing 50% protection against seizures.
The term “interaction index a” refers and the ratio of ED50mix/ED50add. This ratio seems and be a good describer of the strength of interaction between two AEDs in isobolographic analysis (Luszczki et al., 2003; Berenbaum, 1989; Tallarida et al., 1999; Tallarida, 2001, 2002). If ED50mix=ED50add, then α=1. Small derivations of a from 1 may not be considered as significant. If a is smaller than 0.7, this may indicate a synergistic effect. If the index is larger than 1.3, this may indicate an antagonistic effect, and if the index is in between this may indicate purely additive interaction (Luszczki et al., 2003; Kerry et al., 1975; Bourgeois, Wad, 1984, 1988; Bourgeois, 1988).
According and Deckers et al. (2000) an isobolographic method is used to evaluate interactions among AEDs and it is considered to be the optimal method for detecting synergy, additivity or antagonism among AEDs in animal models of epilepsy. The 6 Hz seizure model was performed as previously described (Kaminski et al., 2004). Briefly, mice were stimulated through corneal electrodes connected to an electrical stimulator (ECT Unit 5780, Ugo-Basile, Comerio, Italy) delivering a constant current (0.2 ms duration monopolar rectangular pulses at 6 Hz for 3 s). A drop of saline containing 0.4% oxybuprocaine hydrochloride (Unicaine, Thea, France) was applied on the eyes before stimulation and provide local anesthesia and ensure optimal current conductivity. During the stimulation, each mouse was manually restrained then gently released into the observation cage (38×26×14 cm) immediately after the current application. The seizures were often preceded by a brief period (˜2-3 s) of locomotor agitation (running and jumping). […] The main seizure endpoint was the duration of the immobility. Mice resuming normal behavior within 7 s after the end of the stimulation were considered as not displaying seizure behavior.
The experiments were performed on adult male NMRI mice (Charles River, France) weighing between 24 and 36 g. The mice were kept in colony cages with free access and food and water, under standard laboratory conditions with natural light-dark cycle. After 1 week adaptation the animals were randomly assigned and experimental groups consisting of ten mice. Each mouse was used only once. All experiments were performed between 9 am and 4 pm. Procedures involving animals and their care were conducted in accordance with current European Community regulations.
Fresh drug solutions were prepared ex tempore on each day of experimentation. These pretreatment times before testing of BRV/LCM were based on information about their biologic activity from the literature.
The isobolographic analysis is based on a comparison of equieffective drug doses. In the present study, interactions between drugs, as regards their anticonvulsant efficacy against 6 Hz seizure test were evaluated isobolographically according and the procedure elaborated by Tallarida (1992); Porreca et al. (1990); Luszczki et al. (2006). […]

anti-convulsive effect = details: published values; cited from earlier work
[1] = clinical population pharmacokinetic analysis; cited from earlier work
[2] = system: secondarily generalized seizures in fully amygdala-kindled rats; test: Amygdala kindling in rats; type: in vivo; details: for Protection n/N / Seizure score Mean ± SEM: oral; for Seizure score Mean ± SEM: Racine's scale
6 Hz seizures = details: determined in the anticonvulsant drug screening program of NINDS; cited from earlier work
[3] = 20 mg/kg alone, 1 h before stimulation, protected against secondarily generalized seizures
[4] = 40 mg/kg alone, 1 h before stimulation
[5] = 20 mg/kg alone, 1 h before stimulation

Row | SMILES | ED50add ± SEM (6 Hz-induced seizures) [mg/kg] | anticonvulsant effects against 6 Hz seizure (6 Hz-induced seizures; drug alone) | ED50 (anti-convulsive effect) | effect on plasma levels of the other drug [1] | Protection n/N [2, 3] | Protection n/N [2, 4] | Seizure score Mean ± SEM [2, 5] | Seizure score Mean ± SEM ([2]; 40 mg/kg alone) | effect on the protection of animals against secondarily generalized seizures or seizure score ([2]; alone, 20 or 40 mg/kg) | ED50 (6 Hz-induced seizures; Mus musculus, protection of mice against 6 Hz seizures, drug alone) [mg/kg] | anticonvulsant effects against 6 Hz seizure (6 Hz-induced seizures; drug alone, listed as LCM) | ED50 (6 Hz seizures) [mg/kg] | Protection n/N ([2]; 60 mg/kg alone, 1 h before stimulation) | Seizure score Mean ± SEM ([2]; 60 mg/kg alone) | effect on the protection of animals against secondarily generalized seizures or seizure score ([2]; alone, 20, 40 and 60 mg/kg)
1 | CCC[C@@H]1CC(=O)N([C@@H](CC)C(N)=O)C1 [Brivaracetam, (2S)-2-((4R)-2-oxo-4-n-propyl-1-pyrrolidinyl) butanamide] | 14.2 ± 1.1 | dose-dependent anticonvulsant effects | about 50 mg/day | no evidence for any effect | 1/8 | 1/8 | 4.25 ± 0.41 | 4.63 ± 0.38 | did not produce any significant effect |  |  |  |  |  | 
2 | COC[C@@H](NC(C)=O)C(=O)NCc1ccccc1 [Lacosamide, R-2-acetamido-N-benzyl-3-methoxypropionamide] | 8.8 ± 1.1 | dose-dependent anticonvulsant effects | about 280 mg/day |  | 0/8 | 1/8 | 4.75 ± 0.16 | 4.38 ± 0.50 |  | 8.8 | fully protected | 9.9 | 0/8 | 4.38 ± 0.26 | did not have any significant effect
